Measurements: ChEMBL document CHEMBL1201862, “PubChem BioAssay data set” (2004)
Blank lines part the entries; values can stand above or below the compound they belong to. Calls of active or inactive are those of the source.

What was measured:
Assay type in all cases: functional
[1] = target: T1, Caspase-3 (Homo sapiens, UniProt P42574); assay: inhibition of recombinant caspase-3 activity – biochemical, luminescence, set 2, selectivity assay for SENP protease inhibitor project, SAR follow-up (AID 588599)
T1 sequence (P42574 whole entry): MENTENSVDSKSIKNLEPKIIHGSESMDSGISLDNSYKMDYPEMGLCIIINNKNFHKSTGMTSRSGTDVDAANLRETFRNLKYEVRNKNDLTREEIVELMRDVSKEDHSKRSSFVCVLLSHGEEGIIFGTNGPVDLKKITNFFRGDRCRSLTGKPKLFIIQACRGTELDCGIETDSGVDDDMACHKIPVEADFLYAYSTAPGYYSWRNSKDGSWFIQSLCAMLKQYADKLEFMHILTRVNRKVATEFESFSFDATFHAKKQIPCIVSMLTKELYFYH

[2] = target: T2, Sentrin-specific protease 8 (Homo sapiens, UniProt Q96LD8); assay: inhibition of sentrin protease 8 – biochemical, luminescence, set 2, SAR follow-up (AID 588601)
T2 sequence (Q96LD8 whole entry): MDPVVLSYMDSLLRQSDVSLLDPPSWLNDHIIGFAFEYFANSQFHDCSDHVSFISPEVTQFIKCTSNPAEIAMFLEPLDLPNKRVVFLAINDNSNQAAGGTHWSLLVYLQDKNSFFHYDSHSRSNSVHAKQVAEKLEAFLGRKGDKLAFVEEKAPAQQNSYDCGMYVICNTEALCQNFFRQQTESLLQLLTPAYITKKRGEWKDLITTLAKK

[3] = target: T3, Sentrin-specific protease 7 (Homo sapiens, UniProt Q9BQF6); assay: inhibition of human SENP7 cleavage activity – biochemical, luminescence, set 2, SAR follow-up (AID 588600)
T3 sequence (Q9BQF6 whole entry): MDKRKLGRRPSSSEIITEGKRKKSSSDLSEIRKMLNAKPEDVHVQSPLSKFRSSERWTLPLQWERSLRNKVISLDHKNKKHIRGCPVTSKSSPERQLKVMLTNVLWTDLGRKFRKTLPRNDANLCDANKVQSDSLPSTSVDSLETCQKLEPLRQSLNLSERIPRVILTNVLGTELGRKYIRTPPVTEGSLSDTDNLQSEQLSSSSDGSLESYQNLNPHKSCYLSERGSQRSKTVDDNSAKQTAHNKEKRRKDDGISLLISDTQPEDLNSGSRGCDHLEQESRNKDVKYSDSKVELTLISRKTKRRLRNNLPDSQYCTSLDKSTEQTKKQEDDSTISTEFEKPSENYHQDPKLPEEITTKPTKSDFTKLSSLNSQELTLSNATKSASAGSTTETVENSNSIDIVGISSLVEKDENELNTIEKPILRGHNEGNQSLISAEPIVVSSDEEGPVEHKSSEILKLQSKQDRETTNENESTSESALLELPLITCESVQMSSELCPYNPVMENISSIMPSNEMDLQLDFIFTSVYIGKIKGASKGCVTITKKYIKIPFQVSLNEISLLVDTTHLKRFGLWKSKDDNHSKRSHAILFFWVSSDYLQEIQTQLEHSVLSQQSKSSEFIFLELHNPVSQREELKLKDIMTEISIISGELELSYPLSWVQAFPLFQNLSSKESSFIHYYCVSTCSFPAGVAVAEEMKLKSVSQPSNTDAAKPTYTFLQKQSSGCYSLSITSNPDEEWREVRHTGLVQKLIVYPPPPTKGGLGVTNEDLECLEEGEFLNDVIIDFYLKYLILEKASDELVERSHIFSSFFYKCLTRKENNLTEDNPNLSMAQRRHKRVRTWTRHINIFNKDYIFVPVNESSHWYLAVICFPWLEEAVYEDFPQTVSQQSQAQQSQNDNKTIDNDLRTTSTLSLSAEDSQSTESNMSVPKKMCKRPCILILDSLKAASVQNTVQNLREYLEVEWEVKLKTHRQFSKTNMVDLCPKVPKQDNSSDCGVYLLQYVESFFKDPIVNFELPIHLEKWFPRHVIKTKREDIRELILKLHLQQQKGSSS

[4] = target: T4, Sentrin-specific protease 6 (Homo sapiens, UniProt Q9GZR1); assay: inhibition of human SENP6 catalytic domain – biochemical, luminescence, set 2, SAR follow-up (AID 588598)
T4 sequence (Q9GZR1 whole entry): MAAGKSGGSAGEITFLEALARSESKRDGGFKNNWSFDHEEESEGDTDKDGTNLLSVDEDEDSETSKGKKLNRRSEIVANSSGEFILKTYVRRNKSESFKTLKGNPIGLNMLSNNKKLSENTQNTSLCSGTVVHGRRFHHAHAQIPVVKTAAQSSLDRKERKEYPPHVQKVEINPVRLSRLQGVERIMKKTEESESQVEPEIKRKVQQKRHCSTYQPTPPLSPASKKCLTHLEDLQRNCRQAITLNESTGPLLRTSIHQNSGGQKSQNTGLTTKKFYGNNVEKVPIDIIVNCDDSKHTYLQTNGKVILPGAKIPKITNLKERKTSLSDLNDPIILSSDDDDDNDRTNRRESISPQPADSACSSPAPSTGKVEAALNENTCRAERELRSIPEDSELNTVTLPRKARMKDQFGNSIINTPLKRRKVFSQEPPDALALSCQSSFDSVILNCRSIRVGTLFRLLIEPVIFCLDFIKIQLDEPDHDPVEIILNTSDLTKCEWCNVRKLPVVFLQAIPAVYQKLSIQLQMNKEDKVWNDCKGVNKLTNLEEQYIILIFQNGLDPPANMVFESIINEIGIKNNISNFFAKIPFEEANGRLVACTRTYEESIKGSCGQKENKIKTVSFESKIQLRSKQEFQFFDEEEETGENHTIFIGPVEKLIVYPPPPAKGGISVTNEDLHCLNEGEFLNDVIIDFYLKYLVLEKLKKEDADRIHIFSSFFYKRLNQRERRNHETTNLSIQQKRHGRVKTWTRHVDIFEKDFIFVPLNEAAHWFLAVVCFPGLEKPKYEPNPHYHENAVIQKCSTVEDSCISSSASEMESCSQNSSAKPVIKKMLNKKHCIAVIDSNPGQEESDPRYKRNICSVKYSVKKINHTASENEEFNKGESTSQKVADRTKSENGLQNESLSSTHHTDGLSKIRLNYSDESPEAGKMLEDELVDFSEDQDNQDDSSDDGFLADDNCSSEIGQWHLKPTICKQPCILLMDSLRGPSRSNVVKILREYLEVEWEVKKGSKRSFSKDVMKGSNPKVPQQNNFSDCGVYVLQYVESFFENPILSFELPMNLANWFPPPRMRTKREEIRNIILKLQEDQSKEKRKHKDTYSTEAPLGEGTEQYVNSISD

[5] = target: Induced myeloid leukemia cell differentiation protein Mcl-1 (Homo sapiens, UniProt Q07820)
Induced myeloid leukemia cell differentiation protein Mcl-1, sequence (Q07820 whole entry): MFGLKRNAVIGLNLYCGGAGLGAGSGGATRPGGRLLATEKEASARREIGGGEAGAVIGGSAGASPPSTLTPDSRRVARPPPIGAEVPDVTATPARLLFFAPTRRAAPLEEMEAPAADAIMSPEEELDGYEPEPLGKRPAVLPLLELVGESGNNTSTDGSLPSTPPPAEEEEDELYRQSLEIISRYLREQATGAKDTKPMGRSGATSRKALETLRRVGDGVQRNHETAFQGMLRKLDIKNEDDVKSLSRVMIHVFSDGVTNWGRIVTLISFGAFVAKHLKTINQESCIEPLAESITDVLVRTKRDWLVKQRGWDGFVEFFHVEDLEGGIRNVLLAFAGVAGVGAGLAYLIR

[6] = target: Beta-galactosidase (Escherichia coli, UniProt Q8VNN2); assay: detection-enzyme interference by beta-gal modulators – biochemical, E. coli enzyme, set 3, artefact control for CCR6 antagonist project, dose response (AID 504712)
Beta-galactosidase, sequence (Q8VNN2 whole entry): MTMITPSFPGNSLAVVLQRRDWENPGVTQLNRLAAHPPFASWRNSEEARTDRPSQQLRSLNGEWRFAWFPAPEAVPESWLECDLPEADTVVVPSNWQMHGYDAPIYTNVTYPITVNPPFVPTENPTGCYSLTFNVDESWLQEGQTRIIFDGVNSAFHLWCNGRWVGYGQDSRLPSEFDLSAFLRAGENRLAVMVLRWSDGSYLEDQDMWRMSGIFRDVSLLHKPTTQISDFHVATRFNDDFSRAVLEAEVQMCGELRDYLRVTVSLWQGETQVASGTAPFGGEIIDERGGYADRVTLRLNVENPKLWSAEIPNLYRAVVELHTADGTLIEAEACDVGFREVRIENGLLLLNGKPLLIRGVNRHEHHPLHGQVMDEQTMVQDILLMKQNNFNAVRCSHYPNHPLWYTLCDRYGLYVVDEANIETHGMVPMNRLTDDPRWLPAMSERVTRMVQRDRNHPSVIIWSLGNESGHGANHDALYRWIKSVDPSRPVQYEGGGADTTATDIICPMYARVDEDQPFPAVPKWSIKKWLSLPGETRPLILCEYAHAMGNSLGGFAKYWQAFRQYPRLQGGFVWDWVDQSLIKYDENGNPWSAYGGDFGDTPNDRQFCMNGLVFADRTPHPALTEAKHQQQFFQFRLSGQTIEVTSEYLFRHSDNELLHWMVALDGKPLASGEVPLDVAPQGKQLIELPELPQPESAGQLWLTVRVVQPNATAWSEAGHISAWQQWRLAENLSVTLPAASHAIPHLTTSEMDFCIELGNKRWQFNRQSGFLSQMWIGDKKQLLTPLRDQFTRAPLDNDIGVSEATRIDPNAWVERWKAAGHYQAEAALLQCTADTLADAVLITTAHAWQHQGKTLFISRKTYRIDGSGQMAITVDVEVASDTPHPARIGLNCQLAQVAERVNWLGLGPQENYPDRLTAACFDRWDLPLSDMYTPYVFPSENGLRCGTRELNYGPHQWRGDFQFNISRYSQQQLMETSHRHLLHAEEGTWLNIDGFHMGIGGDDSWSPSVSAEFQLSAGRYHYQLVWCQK

[7] = target: DNA dC->dU-editing enzyme APOBEC-3G (Homo sapiens, UniProt Q9HC16); assay: Dose Response confirmation of small molecule APOBEC3G DNA Deaminase Inhibitors via a fluorescence-based single-stranded DNA deaminase assay. [Related pubchem assays (depositor defined):AID493012, AID493028]
DNA dC->dU-editing enzyme APOBEC-3G, sequence (Q9HC16 whole entry): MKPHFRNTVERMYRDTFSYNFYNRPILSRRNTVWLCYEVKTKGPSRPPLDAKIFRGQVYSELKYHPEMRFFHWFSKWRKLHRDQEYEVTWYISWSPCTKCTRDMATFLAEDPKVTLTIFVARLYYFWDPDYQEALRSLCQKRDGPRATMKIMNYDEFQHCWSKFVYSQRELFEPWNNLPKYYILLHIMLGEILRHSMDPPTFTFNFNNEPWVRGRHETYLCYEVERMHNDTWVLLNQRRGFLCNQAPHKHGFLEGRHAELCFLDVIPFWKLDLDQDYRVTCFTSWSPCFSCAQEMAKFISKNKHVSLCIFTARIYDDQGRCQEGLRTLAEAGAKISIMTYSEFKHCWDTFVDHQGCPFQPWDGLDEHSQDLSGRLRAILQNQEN

[8] = test system: Vero; assay: viability of Vero cells under compound – cytotoxicity control for flavivirus capping enzyme inhibitors (AID 588742); settings: Chlorocebus sabaeus
[9] = target: Beta-arrestin-1 (Homo sapiens, UniProt P49407); assay: beta-arrestin/AP2 interaction blockers, potency – biochemical, cherry pick 1, beta2-adaptin appendage, flow cytometry, dose response (AID 588783)
Beta-arrestin-1, sequence (P49407 whole entry): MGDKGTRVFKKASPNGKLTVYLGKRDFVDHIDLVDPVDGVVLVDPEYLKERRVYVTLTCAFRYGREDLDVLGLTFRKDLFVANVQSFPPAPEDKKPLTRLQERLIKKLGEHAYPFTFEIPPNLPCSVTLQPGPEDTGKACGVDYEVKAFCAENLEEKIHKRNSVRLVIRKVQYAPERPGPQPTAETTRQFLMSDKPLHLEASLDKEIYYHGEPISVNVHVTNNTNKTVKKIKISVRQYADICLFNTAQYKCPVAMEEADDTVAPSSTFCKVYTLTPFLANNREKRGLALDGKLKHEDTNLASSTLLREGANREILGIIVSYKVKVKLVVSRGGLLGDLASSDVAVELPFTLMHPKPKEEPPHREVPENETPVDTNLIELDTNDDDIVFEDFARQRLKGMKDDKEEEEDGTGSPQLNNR

[10] = target: Genome polyprotein (dengue virus type 2, UniProt P29990); assay: flavivirus cap methylation enzyme inhibition – biochemical, confirmation dose response, primary screen (AID 588689)
Genome polyprotein, sequence (P29990 2492-3391 limits assumed): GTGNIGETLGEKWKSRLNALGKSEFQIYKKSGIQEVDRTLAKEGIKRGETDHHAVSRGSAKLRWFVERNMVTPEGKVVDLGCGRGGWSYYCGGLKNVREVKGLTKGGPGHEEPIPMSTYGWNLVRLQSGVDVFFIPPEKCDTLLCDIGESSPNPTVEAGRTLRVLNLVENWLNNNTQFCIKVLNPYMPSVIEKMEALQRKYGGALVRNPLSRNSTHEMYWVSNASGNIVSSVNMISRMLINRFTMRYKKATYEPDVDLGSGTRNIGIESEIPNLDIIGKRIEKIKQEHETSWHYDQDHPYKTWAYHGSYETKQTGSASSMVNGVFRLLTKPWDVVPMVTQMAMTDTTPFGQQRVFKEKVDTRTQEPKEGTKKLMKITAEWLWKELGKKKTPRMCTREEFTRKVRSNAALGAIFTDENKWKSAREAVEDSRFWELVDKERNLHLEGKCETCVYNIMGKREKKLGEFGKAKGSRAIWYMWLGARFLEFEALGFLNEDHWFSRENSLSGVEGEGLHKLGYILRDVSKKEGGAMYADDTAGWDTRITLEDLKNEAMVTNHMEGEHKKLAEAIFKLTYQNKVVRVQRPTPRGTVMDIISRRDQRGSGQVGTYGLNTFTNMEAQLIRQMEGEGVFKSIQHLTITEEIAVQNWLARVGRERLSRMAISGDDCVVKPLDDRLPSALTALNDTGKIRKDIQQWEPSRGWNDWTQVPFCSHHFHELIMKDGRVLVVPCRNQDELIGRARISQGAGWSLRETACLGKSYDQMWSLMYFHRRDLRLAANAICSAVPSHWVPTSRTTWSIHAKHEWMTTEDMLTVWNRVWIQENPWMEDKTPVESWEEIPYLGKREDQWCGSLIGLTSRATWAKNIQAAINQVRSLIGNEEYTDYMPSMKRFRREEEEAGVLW

[11] = viability loss in HeLa cells – cytotoxicity control for MgcRacGAP inhibitor project, dose response (AID 624300)
[12] = target: T5, Rac GTPase-activating protein 1 (Homo sapiens, UniProt Q9H0H5); assay: blockers of MgcRacGAP-driven Rac1 GTP hydrolysis – biochemical, ADP Hunter fluorescence, primary and confirmatory, confirmation (AID 624330)
T5 sequence (Q9H0H5 whole entry): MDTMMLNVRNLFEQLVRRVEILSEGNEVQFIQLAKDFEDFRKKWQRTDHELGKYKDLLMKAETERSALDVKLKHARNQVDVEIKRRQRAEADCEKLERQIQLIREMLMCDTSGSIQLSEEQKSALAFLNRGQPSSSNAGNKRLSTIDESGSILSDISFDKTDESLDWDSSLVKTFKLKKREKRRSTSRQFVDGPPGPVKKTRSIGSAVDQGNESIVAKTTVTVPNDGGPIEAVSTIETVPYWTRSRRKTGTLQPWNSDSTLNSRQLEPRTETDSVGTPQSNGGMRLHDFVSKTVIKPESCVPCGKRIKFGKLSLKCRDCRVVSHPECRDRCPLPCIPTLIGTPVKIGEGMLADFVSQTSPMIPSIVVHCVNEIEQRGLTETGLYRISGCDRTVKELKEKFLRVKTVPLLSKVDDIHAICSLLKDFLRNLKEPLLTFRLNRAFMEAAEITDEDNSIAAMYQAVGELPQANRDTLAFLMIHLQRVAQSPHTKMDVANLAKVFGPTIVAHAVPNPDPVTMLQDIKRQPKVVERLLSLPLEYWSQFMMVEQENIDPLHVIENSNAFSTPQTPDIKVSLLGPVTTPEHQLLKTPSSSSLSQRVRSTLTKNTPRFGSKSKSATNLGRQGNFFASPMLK

[13] = viability loss in THP-1 monocytes – THP-1 cells, cytotoxicity control for Vif-APOBEC3G degradation inhibitor project, dose response (AID 1117359); settings: THP-1
[14] = target: T6, Hexokinase-1 (Homo sapiens, UniProt P19367); assay: hexokinase 1 activity inhibitors, potency – biochemical, set 2, resazurin fluorescence coupled readout, selectivity assay for HKDC1 inhibitor project, SAR follow-up (AID 588356)
T6 sequence (P19367 whole entry): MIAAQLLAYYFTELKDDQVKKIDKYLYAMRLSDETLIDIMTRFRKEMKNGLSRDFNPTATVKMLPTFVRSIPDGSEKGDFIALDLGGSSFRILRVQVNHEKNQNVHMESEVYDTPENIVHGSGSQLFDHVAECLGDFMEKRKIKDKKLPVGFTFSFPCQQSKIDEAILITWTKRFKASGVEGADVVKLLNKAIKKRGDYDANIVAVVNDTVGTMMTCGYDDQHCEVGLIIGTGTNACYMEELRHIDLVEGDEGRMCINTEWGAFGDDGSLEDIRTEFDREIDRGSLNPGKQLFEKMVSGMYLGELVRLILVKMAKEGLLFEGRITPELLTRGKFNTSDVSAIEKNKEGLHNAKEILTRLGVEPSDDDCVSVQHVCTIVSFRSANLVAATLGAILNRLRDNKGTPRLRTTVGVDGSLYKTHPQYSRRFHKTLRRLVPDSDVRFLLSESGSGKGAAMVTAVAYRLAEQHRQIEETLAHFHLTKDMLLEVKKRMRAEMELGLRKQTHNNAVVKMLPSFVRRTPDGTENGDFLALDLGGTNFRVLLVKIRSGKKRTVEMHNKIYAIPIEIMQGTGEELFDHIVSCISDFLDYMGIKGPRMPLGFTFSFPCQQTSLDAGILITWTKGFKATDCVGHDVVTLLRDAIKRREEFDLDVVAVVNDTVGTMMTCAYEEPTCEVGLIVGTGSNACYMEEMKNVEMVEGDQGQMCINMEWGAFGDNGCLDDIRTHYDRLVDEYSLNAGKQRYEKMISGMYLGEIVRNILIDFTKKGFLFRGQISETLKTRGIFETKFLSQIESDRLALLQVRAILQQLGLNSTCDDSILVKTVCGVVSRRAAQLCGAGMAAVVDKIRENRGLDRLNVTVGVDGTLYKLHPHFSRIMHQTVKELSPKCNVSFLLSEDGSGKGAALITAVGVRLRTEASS

[15] = target: T7, Hexokinase HKDC1 (Homo sapiens, UniProt Q2TB90); assay: analog inhibition of human HKDC1 activity – biochemical, set 2, SAR follow-up (AID 588355)
T7 sequence (Q2TB90 whole entry): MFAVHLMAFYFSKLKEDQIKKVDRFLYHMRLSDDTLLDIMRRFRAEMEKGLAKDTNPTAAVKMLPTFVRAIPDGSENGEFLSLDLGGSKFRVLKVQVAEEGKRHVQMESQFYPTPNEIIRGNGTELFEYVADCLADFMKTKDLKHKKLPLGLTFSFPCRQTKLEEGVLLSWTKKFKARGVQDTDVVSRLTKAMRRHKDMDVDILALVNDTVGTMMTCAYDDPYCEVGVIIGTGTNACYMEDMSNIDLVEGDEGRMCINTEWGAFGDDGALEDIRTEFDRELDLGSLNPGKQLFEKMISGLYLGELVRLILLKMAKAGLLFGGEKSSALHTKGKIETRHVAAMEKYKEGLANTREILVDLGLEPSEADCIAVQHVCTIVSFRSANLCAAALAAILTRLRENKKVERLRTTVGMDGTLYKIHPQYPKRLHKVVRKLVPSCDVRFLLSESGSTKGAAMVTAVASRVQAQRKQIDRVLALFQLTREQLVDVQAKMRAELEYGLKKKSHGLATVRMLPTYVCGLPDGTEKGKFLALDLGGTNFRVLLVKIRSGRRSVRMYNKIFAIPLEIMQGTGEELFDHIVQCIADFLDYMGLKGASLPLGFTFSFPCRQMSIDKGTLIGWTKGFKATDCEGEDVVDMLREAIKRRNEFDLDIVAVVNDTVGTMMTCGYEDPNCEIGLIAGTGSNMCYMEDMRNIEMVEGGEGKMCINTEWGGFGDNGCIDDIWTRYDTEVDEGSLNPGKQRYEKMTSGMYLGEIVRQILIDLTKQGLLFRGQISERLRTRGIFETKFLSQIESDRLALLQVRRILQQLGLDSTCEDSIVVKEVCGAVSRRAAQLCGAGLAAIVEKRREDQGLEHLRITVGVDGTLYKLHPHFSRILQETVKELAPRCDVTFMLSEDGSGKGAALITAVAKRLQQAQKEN

IC50 [1]: > 99 µM (inactive)
IC50 [3]: > 99 µM (inactive)
IC50 [4]: > 99 µM (inactive)
Compound: CCCS(=O)(=O)c1c(S(=O)(=O)CCC)c2c(C)cccn2c1C(=O)N/N=C\c1c[nH]c2ccccc12
IC50 [2]: > 99 µM (inactive)

Compound: CCC(=O)NC1=C(Cl)C(=O)C(NC(=O)CC)=C(Cl)C1=O
IC50 [5]: 4.29 µM (active)
IC50 [6]: > 66.6 µM (inactive)
IC50 [7]: 2.67 µM (active)
CC50 [8]: 24 µM (active)
IC50 [9]: 2.79 µM (active)
IC50 [10]: 5.19 µM (active)
CC50 [11]: 48 µM (active)
IC50 [12]: 23.3 µM (active)
CC50 [13]: 33.9 µM (active)

IC50 [14]: > 80 µM (inactive)
IC50 [15]: > 80 µM (inactive)
Compound: CCCCN1C(=O)C(NC(C)=O)c2cc(Cl)ccc21 (stereo not given)
